Laboratory results as given in patent US20210239681A1, “COMPOSITIONS AND METHODS FOR […] OF […]-BASED IMMUNOTHERAPEUTICS” (ADVAXIS, INC., priority 2018, published 2021).

Legend:
Type in all cases: cell-based, human
PBMC = assay: Cytokine release by donor PBMC cultured with peptide; set-up: unit not given beside the values; conditions: release on antigen
Protocol: Peripheral blood mononuclear cells (PBMCs) samples were collected from three human HLA-A*02:01 donors: 358, 213, and 224. The peripheral blood mononuclear cells (PBMCs) were cultured with one of two E7 peptides: […] (9mer or 1T; SEQ ID NO: 100) or […] (10mer or 2T; SEQ ID NO: 101). After 10 days culture, the PBMCs were tested for E7 peptide binding staining and cytokine release.

THP-1 cells [1] = assay: Cytokine production by THP-1 in the absence of T cells; conditions: Without gentamicin; Listeria MOI of 10; optical density
9mer specific T cells = assay: Co-culture of THP-1 with 9mer specific T cells, cytokine production; set-up: IFNγ / IL-10 / IL-12p70 / IL-13 / IL-1β / IL-2 / IL-5 / IL-6 / TNF-α: unit not given here; conditions: for IFNγ production, with 9mer specific T cells: Listeria MOI of 10, optical density
Description: (§1) Analysis Kits and Reagents: Analysis of cytokine concentrations in culture medium used the U-plex assay kits from Meso Scale Discovery. Expression of T cell receptors specific for E7 peptide bound to HLA-A*02:01 was detected using HLA-A*02:01/peptide tetramers from MBL International (Woburn, Mass.).
(§2) There were several possible explanations for the muted response with THP-1 cells infected with ADSX11: including failure of THP-1 cells to process the 10mer epitope from full length E7 protein, failure of the THP-1 cells to present the processed 10mer E7 peptide on HLA-A*02:01, insufficient incubation of the infected cells to allow synthesis of the E7 protein and accumulation of the MHC/peptide complex on the cell surface, and/or an inhibitory effect of gentamicin. A culture of T cells specific for the 9mer epitope was used as well as a new culture of 10mer specific T cells. The THP-1 cells were infected as before with XFL7 or ADXS11-001 at an MOI of 10. After treatment with gentamicin for one hour, the cells were cultured overnight in the absence of gentamicin. The next day the infected cells were collected and co-cultured with 9mer or 10mer specific T cells. These co-cultures were set up in standard X-VIVO 15 and X-VIVO 15 without gentamicin or phenol red. The co-cultures were incubated overnight before collecting medium for cytokine analysis. The medium was tested for IFNγ concentrations and optical density. […] In addition, the 10mer specific T cells recognized ADXS11-001 infected THP-1 when there was no gentamicin in the medium.
(§3) To further explore the importance of the overnight incubation of infected THP-1, THP-1 cells infected overnight were compared to THP-1 cells infected for 2 hours. T cells specific for 9mer and 10mer peptides were co-cultured with each of the THP-1 cells and with uninfected or peptide exposed THP-1. As before, medium was collected after an overnight co-culture and cytokines were measured.
(§4) Optimization of infection time required for E7 presentation. THP-1 infected and cultured overnight compared to THP-1 infected for 2 hours and used after gentamicin treatment. Both 9-mer specific T cells and 10-mer specific T cells used. Assays were performed using X-VIVO 15 medium without gentamicin. The following cytokines were measured: IFNγ, IL-1β, IL-2, IL-10, IL-12p70, IL-13, IL-5, IL-6, TNFα.

10mer specific T cells = assay: Co-culture of THP-1 with 10mer specific T cells, cytokine production; set-up: IFNγ / IL-10 / IL-13 / IL-1β / IL-2 / IL-5 / IL-6 / TNF-α: unit not given here; conditions: for IFNγ production, with 10mer specific T cells: Listeria MOI of 10, optical density
Description: as §1, §2, §3, §4

THP-1 cells [2] = assay: Cytokine production by THP-1 in the absence of T cells; set-up: IL-6: unit not given here
Protocol: as §1
Infection of THP-1: The THP-1 cell line was infected with either ADXS11-001 or XFL7 by incubating 10^6 cells with dilutions of bacteria in a 1 mL volume of RPMI 1640 10% FBS. […] After incubation with gentamicin the cells were washed again and resuspended to the desired cell concentration.
T cell cytokine expression analysis. An initial experiment using THP-1 as antigen presenting cells was performed using a T cell culture containing 6% E7 (11-20) specific T cells based upon staining with HLA-A*02:01/peptide tetramer. THP-1 cells were infected as described using two different concentrations of bacteria and then co-cultured with the T cells. Controls included uninfected THP-1 cells and THP-1 cells incubated with (exposed to) either the 9mer or 10mer peptide for one hour. After an overnight co-culture, medium was collected for analysis of cytokines.
as §3
Titration studies with different multiplicity of infection (MOI). THP cells were infected for 2 hours with 3 different dilutions (MOI) of Listeria. Infected or uninfected THP cells were then cultured overnight for 24 hours before co-culturing the T cells. Cells were co-cultured overnight before cytokine analysis.

[3] = 9mer T cells + peptide exposed THP-1, overnight co-culture
[4] = 10mer T cells + peptide exposed THP-1, overnight co-culture
[5] = Cytokine secretion by THP-1 after infection or + E7 peptide (No T cells), mean of triplicate
[6] = THP-1 + peptide, THP-1 cell alone
[7] = THP-1 + peptide, THP-1 cells only
[8] = THP-1 incubated with peptide, absence of T cells

With YMLDLQPETT [10mer] the “IFNγ Mean” value (PBMC; donor 213 PBMC cultured with 1T peptide) was 86.6, the “IFNγ Mean” value (PBMC; donor 358 PBMC stimulated with 1T) was 183.9 and the “IFNγ Mean” value (PBMC; donor 358 PBMC stimulated with 2T) was 359.8. The “IFNγ production, THP-1 alone” value (THP-1 cells [1]) was 0.062, the “IFNγ production, with 9mer specific T cells” value (9mer specific T cells; 50 μg/mL gentamicin) was 0.075 and the IFNγ (9mer specific T cells; [3]) was 112. The IL-1β (9mer specific T cells; [3]) was “<LLOD”, the IL-2 (9mer specific T cells; [3]) was 3 and the IL-5 (9mer specific T cells; [3]) was “<LLOD”. The IL-6 (9mer specific T cells; [3]) was 0, the IL-10 (9mer specific T cells; [3]) was “<LLOD” and the IL-12p70 (9mer specific T cells; [3]) was 0. The IL-13 (9mer specific T cells; [3]) was “<LLOD”, the TNF-α (9mer specific T cells; [3]) was 2 and the “IFNγ production, with 9mer specific T cells” value (9mer specific T cells; Without gentamicin) was 0.066. The “IFNγ production, with 10mer specific T cells” value (10mer specific T cells; 50 μg/mL gentamicin) was 0.226, the IFNγ (10mer specific T cells; [4]) was 23328 and the IL-1β (10mer specific T cells; [4]) was 3. It also gave an IL-2 (10mer specific T cells; [4]) of 452, an IL-5 (10mer specific T cells; [4]) of 1 and an IL-6 (10mer specific T cells; [4]) of 31. For the same sequence, the IL-10 (10mer specific T cells; [4]) was 12, the IL-12p70 (10mer specific T cells; [4]) was “<LLOD” and the IL-13 (10mer specific T cells; [4]) was 23. For the same sequence, the TNF-α (10mer specific T cells; [4]) was 460, the “IFNγ production, with 10mer specific T cells” value (10mer specific T cells; Without gentamicin) was 0.200 and the “IFNγ production, THP-1 alone” value (THP-1 cells [2]; 50 μg/mL gentamicin, Listeria MOI of 10, optical density) was 0.058. It also gave an IFNγ (THP-1 cells [2]; [5]) of 36.7 pg/mL, an IL-1β (THP-1 cells [2]; [5]) of 0.2 pg/mL and an IL-2 (THP-1 cells [2]; [5]) of 4.6 pg/mL. The IL-4 (THP-1 cells [2]; [5]) was 0.6 pg/mL, the IL-5 (THP-1 cells [2]; [5]) was “<LLOD” and the IL-8 (THP-1 cells [2]; [5]) was 11.8 pg/mL. For the same sequence, the IL-10 (THP-1 cells [2]; [5]) was 0.4 pg/mL, the IL-12p70 (THP-1 cells [2]; [5]) was 0.3 pg/mL and the IL-13 (THP-1 cells [2]; [5]) was “<LLOD”. The TNF-α (THP-1 cells [2]; [5]) was 15.5 pg/mL, the IFNγ (THP-1 cells [2]; [6]) was 9 and the IL-1β (THP-1 cells [2]; [6]) was 0. For the same sequence, the IL-6 (THP-1 cells [2]; [6]) was “<LLOD”, the TNF-α (THP-1 cells [2]; [6]) was “<LLOD” and the IFNγ (THP-1 cells [2]; [7]) was 1. For the same sequence, the IL-1β (THP-1 cells [2]; [7]) was 0, the IL-6 (THP-1 cells [2]; [7]) was 6 and the TNF-α (THP-1 cells [2]; [7]) was 104. The IFNγ (THP-1 cells [2]; THP-1 alone, peptide exposed) was “<LLOD”, the IL-1β (THP-1 cells [2]; THP-1 alone, peptide exposed) was “<LLOD” and the IL-2 (THP-1 cells [2]; THP-1 alone, peptide exposed) was “<LLOD”. For the same sequence, the IL-5 (THP-1 cells [2]; THP-1 alone, peptide exposed) was “<LLOD”, the IL-6 (THP-1 cells [2]; THP-1 alone, peptide exposed) was “<LLOD” and the IL-10 (THP-1 cells [2]; THP-1 alone, peptide exposed) was “<LLOD”. For the same sequence, the IL-12p70 (THP-1 cells [2]; THP-1 alone, peptide exposed) was “<LLOD”, the IL-13 (THP-1 cells [2]; THP-1 alone, peptide exposed) was “<LLOD” and the TNF-α (THP-1 cells [2]; THP-1 alone, peptide exposed) was 0. The IFNγ (THP-1 cells [2]; [8]) was “<LLOD”, the IL-1β (THP-1 cells [2]; [8]) was 0.1 and the IL-2 (THP-1 cells [2]; [8]) was “<LLOD”. The IL-4 (THP-1 cells [2]; [8]) was “<LLOD”, the IL-6 (THP-1 cells [2]; [8]) was “<LLOD” and the IL-8 (THP-1 cells [2]; [8]) was 8.1. For the same sequence, the IL-10 (THP-1 cells [2]; [8]) was “<LLOD”, the IL-12p70 (THP-1 cells [2]; [8]) was “<LLOD” and the IL-13 (THP-1 cells [2]; [8]) was “<LLOD”. For the same sequence, the TNF-α (THP-1 cells [2]; [8]) was “<LLOD”.
